Here are results for 35 compounds from ChEMBL document CHEMBL1201862, “PubChem BioAssay data set” (2004).

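The compound was tested at five concentrations on cells cultured in 96-well plates, with a 48-hour exposure period. Here, GI50 denotes the concentration required for 50% inhibition of growth.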 Active and inactive are the calls of the source. No stated cut-off is given here; in the data, active = GI50 up to about 1.1 µM and inactive = higher.

Some test systems named below: Hs-578T; BT-549; 786-0; MDA-MB-435; DMS-114; SNB-78; DMS-273; RXF 631; XF498.
Common to all, as to test: NCI tumour cell line growth inhibition, 48 h

In the case of `COc1ccc(CCCC(=O)O)c(C)c1`, the GI50 is 43.5 µM (inactive) in the test on Hs-578T, 84.9 µM (inactive) in the test with BT-549, 30.1 µM (inactive) in the test on 786-0 and 32.8 µM (inactive) in the test on MDA-MB-435.
`O=C(O)C(CCc1ccccc1)N1C(=O)c2ccccc2C1=O` (centres undefined): the GI50 in the test with BT-549, in the test on 786-0 and with MDA-MB-435 was > 100 µM (inactive) throughout.
Consider `CCOC(=O)CSc1c(C(=O)OCC)c(=O)n(-c2ccccc2)c(=S)n1-c1ccccc1`, for which the GI50 in the test with Hs-578T was 33 µM (inactive); in the test on BT-549, 8.49 µM (inactive); in the test with 786-0, 85.5 µM (inactive); in the test with MDA-MB-435, 41.6 µM (inactive).
In the case of `Cc1ccc([N+](=O)[O-])cc1NC(=O)C(=O)C(C(=O)c1ccccc1F)C1OC(=O)c2ccccc21` (centres undefined), the GI50 with DMS-114 is 16.5 µM (inactive); in the test on SNB-78, > 100 µM (inactive); in the test with DMS-273, 36.3 µM (inactive); in the test on RXF 631 it was 32.7 µM (inactive); in the test with XF498, 81.5 µM (inactive).
With `COC1/C=C/C(C)C(C(C)C(OC)C(C)CCC(=O)C(C)C(C/C=C/N(C)C=O)OC)OC(=O)/C=C/C=C(\C)CC(OC)CC2=CC(=O)O[C@H](C2)C(C)C(OC)CC(OC)/C=C/C(C)C(OC)C1` (some centres undefined), the GI50 in the test on Hs-578T was 0.0158 µM (active); in the test on BT-549, 0.0108 µM (active); with MDA-MB-435, 0.0286 µM (active).
On to `CCOc1cc(/C=N\O)cc(/C=N/O)c1O`, for which the values for the GI50 in the test on Hs-578T, in the test with 786-0 and in the test on MDA-MB-435 were 31.3 µM (inactive), 49.4 µM (inactive) and 32.3 µM (inactive), respectively.
Take `CN(C)c1ccc(C2SCC(=O)N2NS(=O)(=O)c2cccc(C(=O)O)c2)cc1` (centres undefined): the GI50 with Hs-578T is > 100 µM (inactive); in the test on BT-549 it was > 100 µM (inactive); with 786-0, 17.2 µM (inactive); in the test on MDA-MB-435 it was > 100 µM (inactive).
Take `FC(F)(F)C(C1=NC(C(F)(F)F)(C(F)(F)F)N=C(N2CCOCC2)O1)C(F)(F)F`: the GI50 was 32.4 µM (inactive) with Hs-578T, 17.9 µM (inactive) in the test on BT-549 and 15.3 µM (inactive) in the test with MDA-MB-435.
Regarding `COc1ccccc1NC(=O)/C(=C/c1ccccc1)C(C)=O`, the GI50 was 40.3 µM (inactive) with DMS-114, 10.8 µM (inactive) in the test on SNB-78, 35.1 µM (inactive) in the test on 786-0 and 19.4 µM (inactive) in the test on XF498.
In the case of `COc1ccc(NC(=O)CC/C(CC(=O)c2ccccc2Cl)=N\Nc2nnc(C)n2N)cc1`, the GI50 in the test on DMS-114, in the test on SNB-78, in the test with DMS-273, in the test with 786-0 and with RXF 631 was > 100 µM (inactive) each time.
With `C=CCNC(=S)N/N=C1\C(=O)Nc2ccc([N+](=O)[O-])cc21`, the GI50 was > 100 µM (inactive) in the test with Hs-578T, 52.4 µM (inactive) in the test with BT-549 and 89.3 µM (inactive) in the test on MDA-MB-435.
Take `N#CC1(C#N)C2C=CC(C3CCC=C32)C1(C#N)C#N` (centres undefined): the GI50 with Hs-578T is > 10 µM (inactive); in the test on BT-549, > 10 µM (inactive); in the test with 786-0, > 5.66 µM (inactive); with MDA-MB-435, > 10 µM (inactive).
As for `CN(C)c1n/c(=N/c2ccc(/N=c3\nc(N(C)C)ss3)cc2)ss1`, the GI50 in the test on DMS-114 is 16.7 µM (inactive); in the test with SNB-78, 17.6 µM (inactive); in the test on DMS-273 it was 28.8 µM (inactive); with 786-0, 63.7 µM (inactive); in the test on RXF 631, 22 µM (inactive).
Take `N#CC1(CCCI)CCCC1`: the GI50 is 3.72 µM (inactive) in the test on DMS-114; 20.1 µM (inactive) in the test on SNB-78; 4.55 µM (inactive) in the test with DMS-273; 1.34 µM (inactive) in the test with RXF 631; 18.6 µM (inactive) with XF498.
With `Cc1cn(Cc2cnnn2CC2OC(n3cc(C)c(=O)[nH]c3=O)CC2O)c(=O)[nH]c1=O` (centres undefined), the GI50 with Hs-578T, in the test with BT-549 and in the test on MDA-MB-435 was > 100 µM (inactive) each time.
As for `C=C1CC(C)(COc2ccc3c(C)cc(=O)oc3c2)OC1=O` (centres undefined), the GI50 in the test on Hs-578T was 3.56 µM (inactive); in the test on BT-549, 2.31 µM (inactive); in the test with 786-0, 1.48 µM (inactive); in the test with MDA-MB-435, 1.28 µM (inactive).
For `COc1ccc(NCC(=O)Nn2c(-c3ccccc3)nc3ccccc3c2=O)cc1` the same measures were 28.1 µM (inactive), 23.3 µM (inactive), 25.6 µM (inactive) and 51.8 µM (inactive).
As to `COc1cc(C(=O)C/C(CCC(=O)Nc2ccc(Cl)cc2Cl)=N/NC(=O)C(=O)NN)ccc1O`, the GI50 in the test on DMS-114, with 786-0, with RXF 631 and in the test on XF498 was > 100 µM (inactive) each time.
In the case of `CC1(C)COC2C(N(Cc3ccccc3)Cc3ccccc3)C(=O)N21` (centres undefined), the values for the GI50 in the test on SNB-78 and in the test with 786-0 were 42.6 µM (inactive) and 31 µM (inactive), respectively.
On to `CCN(CC)CCCC(C)Nc1cc(-c2ccccc2)nc2cc(OC)ccc12` (centres undefined), for which the GI50 with DMS-114 was 6.68 µM (inactive); in the test on SNB-78, 3.21 µM (inactive).
For the compound `N#Cc1c(-c2ccccc2)cn(C(=O)c2ccccc2)c1N`, the GI50 in the test on Hs-578T, with 786-0 and with MDA-MB-435 was > 100 µM (inactive) in each case.
With `O=c1c(-c2ccccc2)c(SCCCN2CCCCC2)n(-c2ccccc2)c(=S)n1-c1ccccc1`, the GI50 was 34.2 µM (inactive) in the test on Hs-578T, 18 µM (inactive) in the test on BT-549 and 17.7 µM (inactive) in the test with MDA-MB-435.
On to `c1ccc(CSC(SCc2ccccc2)c2cccc3ccccc23)cc1`, for which the GI50 in the test on Hs-578T and with MDA-MB-435 was > 10 µM (inactive) in each case.
As for `COc1nc2[nH]ccc2c(=O)[nH]1`, the GI50 in the test with DMS-114, in the test on SNB-78 and in the test on RXF 631 was > 100 µM (inactive) in each case.
Regarding `CC(C)O/C=C1\C(=O)C2(SCCS2)[C@H]2CCCC[C@@H]12`, the GI50 is 49 µM (inactive) in the test with SNB-78, 37.2 µM (inactive) in the test on DMS-273, 48 µM (inactive) with 786-0 and 52.8 µM (inactive) in the test on RXF 631.
Take `Cc1cc(N(CCC#N)S(=O)(=O)c2ccccc2)ccc1/C=N\c1cccc(C(=O)O)c1`: the GI50 was 61 µM (inactive) in the test with DMS-114, > 100 µM (inactive) in the test with SNB-78 and > 100 µM (inactive) with RXF 631.
Turning to `OCC1OC(n2ccc3cnccc32)CC1O` (centres undefined), the GI50 with DMS-114, with SNB-78, in the test with DMS-273 and with 786-0 was > 100 µM (inactive) throughout.
Consider `O=c1c2c3c(sc2nc(CN2CCNCC2)n1-c1ccccc1)CCCC3`, for which the GI50 in the test with Hs-578T, in the test on BT-549 and with 786-0 was > 100 µM (inactive) throughout.
As for `COc1ccc(C2COc3cc(O)c(O)cc3C2)cc1` (centres undefined), the figures for the GI50 in the test on SNB-78, with DMS-273 and in the test with XF498 were 38.3 µM (inactive), 33.3 µM (inactive) and 7.28 µM (inactive), respectively.
Take `CCOC(=O)Nc1ccc(S(=O)(=O)NCCCl)cc1.CCOC(=O)Nc1ccc(S(=O)(=O)NCCCl)cc1.O=C(O)c1ccc(/N=N/Cl)cc1O`: the GI50 in the test with DMS-114, in the test with SNB-78, with DMS-273 and in the test on RXF 631 was > 100 µM (inactive) throughout.
`NC1CCCCC1.O=P(O)(O)C(CSc1ccccc1)P(=O)(O)O`: the GI50 in the test on DMS-114, in the test with SNB-78, in the test with DMS-273 and in the test on XF498 was > 100 µM (inactive) in each case.
On to `CN1C(=O)CN=C(c2ccccc2F)c2cc(N=C=S)ccc21`, for which the GI50 was 61.7 µM (inactive) in the test on Hs-578T, 58.5 µM (inactive) with BT-549, 43.8 µM (inactive) with 786-0 and 35.9 µM (inactive) in the test on MDA-MB-435.
As for `O=C(NC(COC(=O)C(Cc1ccccc1)NC(=O)c1ccccc1)Cc1ccccc1)c1ccccc1` (centres undefined), the GI50 in the test with Hs-578T and in the test on MDA-MB-435 was > 50 µM (inactive) in each case.
As to `CCCCC1=C(C(=O)N2CCOCC2)C2(OCCO2)C1=O`, the GI50 is 31.7 µM (inactive) with Hs-578T, 23 µM (inactive) in the test with BT-549, 18.2 µM (inactive) in the test on 786-0 and 18.5 µM (inactive) in the test on MDA-MB-435.
For `O=C(c1cccs1)N(C(=S)OC12CC3CC(CC(C3)C1)C2)c1ccccc1` the same measures were 32 µM (inactive), 35.3 µM (inactive), 35.4 µM (inactive) and 29.8 µM (inactive).
